Measured values: patent US20200017495A1, “NOVEL HETEROCYCLIC COMPOUNDS AND THEIR USE IN PREVENTING OR TREATING BACTERIAL INFECTIONS” (priority 2017, published 2020)
Read-outs that look alike come from different tables or passages of the source.

Experiments:
TEM-1 = TEM-1 (Escherichia coli, UniProt P62593); assay: β-lactamase inhibitory activity, IC50 (nitrocefin hydrolysis); format: biochemical
Procedure: (§3) Enzymes were cloned in E. coli expression vector, expressed and purified in house using classical procedures. […] After 30 min of pre-incubation at room temperature, 15 μL of NCF (100 μM final) were finally added in each well. […] Enzyme activity was obtained by subtracting the background from the final signal, and was converted to enzyme inhibition using non inhibited wells. IC50 curves were fitted to a classical Langmuir equilibrium model with Hill slope using XLFIT (IDBS).

SHV-1 = SHV-1 (Klebsiella pneumoniae, UniProt P0AD64); assay: as above; format: biochemical
Procedure: as §3

SHV-12 = SHV-12 (Klebsiella pneumoniae, UniProt P0AD64, E235K/G234S/L31Q); assay: as above; format: biochemical; conditions: SHV-12; 30 min pre-incubation, nitrocefin 100 μM; read-out: IC50
SHV-12, sequence (P0AD64 22-286 L31Q/G234S/E235K): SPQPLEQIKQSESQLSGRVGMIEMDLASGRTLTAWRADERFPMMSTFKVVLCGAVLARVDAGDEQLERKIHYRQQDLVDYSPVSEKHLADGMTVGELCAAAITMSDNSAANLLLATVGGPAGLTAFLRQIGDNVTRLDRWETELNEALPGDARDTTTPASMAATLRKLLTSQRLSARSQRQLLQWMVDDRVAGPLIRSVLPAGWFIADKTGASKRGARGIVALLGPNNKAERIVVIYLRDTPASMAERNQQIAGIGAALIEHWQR
Procedure: (§4) Method 1: β-Lactamase Inhibitory Activity, Determination of IC50 (Table 1)
as §3

CTX-M-15 = CTX-M-15 (Escherichia coli, UniProt Q9EXV5); assay: as above; format: biochemical
CTX-M-15, sequence (Q9EXV5 entry or part of it): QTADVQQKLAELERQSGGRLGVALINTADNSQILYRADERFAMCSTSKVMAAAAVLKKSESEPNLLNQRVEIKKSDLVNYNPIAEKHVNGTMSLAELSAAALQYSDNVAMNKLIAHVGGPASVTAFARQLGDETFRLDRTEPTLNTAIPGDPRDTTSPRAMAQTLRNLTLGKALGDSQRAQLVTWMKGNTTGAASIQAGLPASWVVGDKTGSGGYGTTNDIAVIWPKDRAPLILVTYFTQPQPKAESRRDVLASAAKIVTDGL
Procedure: as §4, §3

KPC-2 = KPC-2 (Klebsiella pneumoniae, UniProt Q9F663); assay: as above; format: biochemical
KPC-2, sequence (Q9F663 25-293 limits assumed): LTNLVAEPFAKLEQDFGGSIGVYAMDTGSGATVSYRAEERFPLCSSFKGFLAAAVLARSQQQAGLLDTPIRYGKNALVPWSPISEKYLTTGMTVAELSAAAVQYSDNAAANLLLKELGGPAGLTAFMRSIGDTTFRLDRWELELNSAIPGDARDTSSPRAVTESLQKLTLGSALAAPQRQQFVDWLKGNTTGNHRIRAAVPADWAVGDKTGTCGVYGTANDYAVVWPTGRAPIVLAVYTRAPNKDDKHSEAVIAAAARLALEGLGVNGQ
Procedure: as §4, §3

SAU PC1 = SAU PC1 (Staphylococcus aureus, UniProt P00807); assay: as above; format: biochemical, S. aureus; conditions: SAU PC1; 30 min pre-incubation, nitrocefin 100 μM; read-out: IC50
SAU PC1, sequence (P00807 25-281): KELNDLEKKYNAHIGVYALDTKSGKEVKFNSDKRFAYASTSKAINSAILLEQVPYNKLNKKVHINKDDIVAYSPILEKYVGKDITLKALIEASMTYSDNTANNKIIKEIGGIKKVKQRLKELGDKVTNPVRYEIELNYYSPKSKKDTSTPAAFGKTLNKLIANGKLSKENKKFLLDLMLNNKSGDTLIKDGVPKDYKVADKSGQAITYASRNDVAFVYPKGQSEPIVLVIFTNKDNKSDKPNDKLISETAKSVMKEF
Procedure: as §4, §3

P99 ampC = P99 ampC (Enterobacter cloacae, UniProt P05364); assay: as above; format: biochemical
P99 ampC, sequence (P05364 21-381): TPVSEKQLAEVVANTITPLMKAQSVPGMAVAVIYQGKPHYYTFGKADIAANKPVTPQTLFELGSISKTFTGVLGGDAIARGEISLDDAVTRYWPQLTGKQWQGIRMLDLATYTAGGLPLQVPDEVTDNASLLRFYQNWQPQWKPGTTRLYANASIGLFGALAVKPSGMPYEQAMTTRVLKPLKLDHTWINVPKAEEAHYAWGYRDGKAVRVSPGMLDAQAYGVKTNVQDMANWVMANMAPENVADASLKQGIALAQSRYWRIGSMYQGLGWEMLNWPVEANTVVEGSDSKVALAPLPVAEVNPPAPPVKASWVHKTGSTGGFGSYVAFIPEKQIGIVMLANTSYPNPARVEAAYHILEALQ
Procedure: as §4, §3

PAE ampC = PAE ampC (Pseudomonas aeruginosa, UniProt P24735); assay: as above; format: biochemical, P. aeruginosa
PAE ampC, sequence (P24735 27-397): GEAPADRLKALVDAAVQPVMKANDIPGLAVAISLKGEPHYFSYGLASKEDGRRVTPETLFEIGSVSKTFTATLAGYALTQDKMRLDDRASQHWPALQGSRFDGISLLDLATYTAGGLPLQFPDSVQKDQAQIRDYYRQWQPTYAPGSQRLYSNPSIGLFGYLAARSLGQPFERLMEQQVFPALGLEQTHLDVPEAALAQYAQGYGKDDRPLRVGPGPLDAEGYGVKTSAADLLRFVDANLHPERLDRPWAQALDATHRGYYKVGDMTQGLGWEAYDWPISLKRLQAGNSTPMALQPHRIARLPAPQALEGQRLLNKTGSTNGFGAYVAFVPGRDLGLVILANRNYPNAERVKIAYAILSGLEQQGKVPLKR
Procedure: as §3

OXA-1 = OXA-1 (Escherichia coli, UniProt P13661); assay: as above; format: biochemical
OXA-1, sequence (P13661 26-276): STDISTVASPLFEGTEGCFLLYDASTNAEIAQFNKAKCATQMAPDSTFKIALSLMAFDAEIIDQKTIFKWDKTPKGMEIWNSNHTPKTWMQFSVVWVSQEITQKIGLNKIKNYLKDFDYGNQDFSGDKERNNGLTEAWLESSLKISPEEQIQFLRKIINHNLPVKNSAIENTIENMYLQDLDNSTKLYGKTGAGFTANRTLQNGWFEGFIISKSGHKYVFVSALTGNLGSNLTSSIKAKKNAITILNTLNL
Procedure: as §3

OXA-11 = OXA-11 (Pseudomonas aeruginosa, UniProt Q06778); assay: as above; format: biochemical
OXA-11, sequence (Q06778 21-266): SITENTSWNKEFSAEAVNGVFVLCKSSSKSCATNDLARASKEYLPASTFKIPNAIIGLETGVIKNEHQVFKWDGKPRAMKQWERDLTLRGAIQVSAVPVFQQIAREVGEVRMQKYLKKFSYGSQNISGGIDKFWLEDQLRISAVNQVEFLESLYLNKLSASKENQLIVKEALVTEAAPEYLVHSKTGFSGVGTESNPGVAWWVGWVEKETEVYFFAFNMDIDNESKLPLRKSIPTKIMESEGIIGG
Procedure: as §3

OXA-15 = OXA-15 (Pseudomonas aeruginosa, UniProt Q51574); assay: as above; format: biochemical
OXA-15, sequence (Q51574 22-275): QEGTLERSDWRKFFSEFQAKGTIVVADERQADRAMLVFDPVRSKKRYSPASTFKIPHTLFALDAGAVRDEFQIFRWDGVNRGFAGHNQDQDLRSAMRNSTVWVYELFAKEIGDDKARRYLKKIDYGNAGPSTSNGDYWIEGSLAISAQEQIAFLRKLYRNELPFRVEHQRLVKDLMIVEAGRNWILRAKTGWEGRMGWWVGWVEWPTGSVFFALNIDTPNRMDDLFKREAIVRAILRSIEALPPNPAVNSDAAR
Procedure: as §3

OXA-23 = OXA-23 (Acinetobacter baumannii, UniProt Q9L4P2); assay: as above; format: biochemical
OXA-23, sequence (Q9L4P2 18-273): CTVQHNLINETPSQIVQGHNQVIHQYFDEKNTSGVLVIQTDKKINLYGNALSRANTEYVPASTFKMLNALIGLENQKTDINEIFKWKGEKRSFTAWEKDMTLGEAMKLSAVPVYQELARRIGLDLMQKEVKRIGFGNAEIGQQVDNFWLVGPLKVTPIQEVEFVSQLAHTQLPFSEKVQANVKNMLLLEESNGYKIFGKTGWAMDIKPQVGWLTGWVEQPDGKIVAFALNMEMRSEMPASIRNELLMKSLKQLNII
Procedure: as §3

OXA-40 = OXA-40 (Acinetobacter baumannii, UniProt Q8RLA6); assay: as above; format: biochemical
OXA-40, sequence (Q8RLA6 entry or part of it): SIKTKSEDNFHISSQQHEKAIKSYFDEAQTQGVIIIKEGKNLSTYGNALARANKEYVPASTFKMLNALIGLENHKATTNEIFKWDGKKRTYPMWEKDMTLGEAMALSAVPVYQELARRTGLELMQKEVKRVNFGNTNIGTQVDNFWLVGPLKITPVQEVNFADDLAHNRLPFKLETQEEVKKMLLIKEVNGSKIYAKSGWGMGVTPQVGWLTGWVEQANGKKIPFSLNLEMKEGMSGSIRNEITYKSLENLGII
Procedure: as §3

OXA-48 = OXA-48 (Klebsiella pneumoniae, UniProt Q6XEC0); assay: as above; format: biochemical
OXA-48, sequence (Q6XEC0 23-265 limits assumed): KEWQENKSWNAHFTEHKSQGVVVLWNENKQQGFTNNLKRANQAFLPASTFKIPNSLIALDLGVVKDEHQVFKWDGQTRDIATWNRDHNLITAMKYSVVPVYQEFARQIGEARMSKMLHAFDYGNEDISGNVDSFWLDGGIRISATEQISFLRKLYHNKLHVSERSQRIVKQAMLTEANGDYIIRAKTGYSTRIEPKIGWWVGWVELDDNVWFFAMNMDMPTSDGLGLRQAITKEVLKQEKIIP
Procedure: as §3

OXA-58 = OXA-58 (Acinetobacter baumannii, UniProt Q2TR58); assay: as above; format: biochemical
OXA-58, sequence (Q2TR58 19-280): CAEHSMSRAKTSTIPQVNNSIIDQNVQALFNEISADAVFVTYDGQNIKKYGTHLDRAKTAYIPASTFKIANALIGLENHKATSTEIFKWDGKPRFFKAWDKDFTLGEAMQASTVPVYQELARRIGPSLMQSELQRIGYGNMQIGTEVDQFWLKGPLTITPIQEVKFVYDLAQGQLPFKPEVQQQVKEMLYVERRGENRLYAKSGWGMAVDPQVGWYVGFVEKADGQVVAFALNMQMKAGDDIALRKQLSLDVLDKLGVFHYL
Procedure: as §3

[1] = test system: Citrobacter freundii (CFR) isolates; assay: MIC of compounds alone and combined with antibacterials, broth microdilution (CLSI); format: cell-based; conditions: Citrobacter freundii, strain CFR UFR250; compound alone
Procedure: (§1) Method 2: MIC of Compounds Alone and Combined with Antibacterials Against Bacterial Isolates
(§2) Compounds of the present invention were assessed against genotyped bacterial strains (Table 3, 4) alone or in combination with an antibacterial (Table 2). […] Log phase bacterial suspensions were adjusted to a final density of 5.10^5 CFU/mL in cation-adjusted Mueller-Hinton broth (ca-MHB; Becton-Dickinson and Company) and added to each well (98 μL). Microplates were incubated for 16-20 h at 35° C. in ambient air. The MIC of the compounds was defined as the lowest concentration of said compounds that prevented bacterial growth as read by visual inspection. The MIC of ATB at each compound concentration was defined as the lowest concentration of ATB that prevented bacterial growth as read by visual inspection.

[2] = test system: Enterobacter aerogenes (EAE) isolates; assay: as above; format: cell-based; conditions: Klebsiella aerogenes
Procedure: as §1, §2

[3] = test system: Escherichia coli (ECO) isolates; assay: as above; format: cell-based; conditions: Escherichia coli, compound alone, read-out: MIC
Procedure: as §1, §2

[4] = test system: Klebsiella pneumoniae (KPN) isolates; assay: as above; format: cell-based; conditions: Klebsiella pneumoniae, compound alone, read-out: MIC
Procedure: as §1, §2

[5] = test system: Serratia marcescens (SMA) isolates; assay: as above; format: cell-based; conditions: Serratia marcescens; strain SMA UFR143; compound alone; read-out: MIC
Procedure: as §1, §2

[6] = test system: Proteus mirabilis (PMI) isolates; assay: microbe, parasite or virus in culture; format: cell-based; conditions: Proteus mirabilis, compound alone, read-out: MIC
Procedure: as §1, §2

[7] = test system: Providencia stuartii (PST) isolates; assay: MIC of compounds alone and combined with antibacterials, broth microdilution (CLSI); format: cell-based; conditions: Providencia stuartii; strain PST UFR235; compound alone; read-out: MIC
Procedure: as §1
Compounds of the present invention were assessed against genotyped bacterial strains (Table 3, 4) alone or in combination with an antibacterial (Table 2). […]. Briefly, compounds alone according to the invention were prepared in DMSO and spotted (2 μL each) on sterile polystyrene plates (Corning, 3788). Combinations of compounds and antibiotics dilutions were prepared in DMSO and spotted (1 μL each) on sterile polystyrene plates (Corning, 3788). Log phase bacterial suspensions were adjusted to a final density of 5.10^5 CFU/mL in cation-adjusted Mueller-Hinton broth (ca-MHB; Becton-Dickinson and Company) and added to each well (98 μL). Microplates were incubated for 16-20 h at 35° C. in ambient air. The MIC of the compounds was defined as the lowest concentration of said compounds that prevented bacterial growth as read by visual inspection. The MIC of ATB at each compound concentration was defined as the lowest concentration of ATB that prevented bacterial growth as read by visual inspection.

SHV-1, sequence (P0AD64 22-286): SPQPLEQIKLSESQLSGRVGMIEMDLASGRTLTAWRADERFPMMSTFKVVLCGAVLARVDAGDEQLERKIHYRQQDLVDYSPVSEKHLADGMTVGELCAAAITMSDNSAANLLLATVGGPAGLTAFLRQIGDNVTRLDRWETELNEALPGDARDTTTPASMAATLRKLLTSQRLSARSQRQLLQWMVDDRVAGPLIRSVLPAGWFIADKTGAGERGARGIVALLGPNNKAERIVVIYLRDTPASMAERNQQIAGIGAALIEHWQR
TEM-1, sequence (P62593 24-286 limits assumed): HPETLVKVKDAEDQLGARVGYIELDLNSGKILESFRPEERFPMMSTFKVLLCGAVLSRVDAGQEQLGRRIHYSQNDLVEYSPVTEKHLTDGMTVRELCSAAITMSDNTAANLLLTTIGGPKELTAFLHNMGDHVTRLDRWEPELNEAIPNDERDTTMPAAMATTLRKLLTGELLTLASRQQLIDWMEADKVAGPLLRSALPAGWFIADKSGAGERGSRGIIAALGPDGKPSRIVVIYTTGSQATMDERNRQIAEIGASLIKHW

## O=C1N2CC=C(c3cnoc3)C(C2)N1OC(F)(F)C(=O)[O-].[Li+] (stereo not drawn) [AF1, Lithium difluoro-(4-isoxazol-4-yl-7-oxo-1,6-diaza-bicyclo[3.2.1]oct-3-en-6-yloxy)-acetate]
TEM-1
  IC50: 10 nM
SHV-1
  IC50: 20 nM
SHV-12
  IC50: 3.8 nM
CTX-M-15
  IC50: 2.4 nM
KPC-2
  IC50: 510 nM
SAU PC1
  IC50: 560 nM
P99 ampC
  IC50: 2200 nM
PAE ampC
  IC50: 4.5 µM
OXA-1
  IC50: 1600 nM
OXA-11
  IC50: 250 nM
OXA-15
  IC50: 24 nM
OXA-23
  IC50: 110 nM
OXA-40
  IC50: 120 nM
OXA-48
  IC50: 3 nM
OXA-58
  IC50: 15 nM
[1]
  MIC: > 32 µg/mL
[2]
  MIC: 32 µg/mL
[3]; strain ECO 190317
  MIC: 2 µg/mL
[3]; strain ECO 190457
  MIC: 4 µg/mL
[3]; strain ECO UFR16
  MIC: 8 µg/mL
[3]; strain ECO UFR20
  MIC: 16 µg/mL
[3]; strain ECO UFR61O
  MIC: 8 µg/mL
[3]; strain ECO UFR209
  MIC: 8 µg/mL
[4]; strain KPN 110376
  MIC: > 32 µg/mL
[4]; strain KPN 131119
  MIC: > 32 µg/mL
[4]; strain KPN 190270
  MIC: > 32 µg/mL
[4]; strain KPN UFR25
  MIC: > 32 µg/mL
[4]; strain KPN UFR66
  MIC: > 32 µg/mL
[4]; strain KPN UFR68
  MIC: > 32 µg/mL
[5]
  MIC: 32 µg/mL
[6]; strain PMI UFR126
  MIC: 8 µg/mL
[6]; strain PMI UFR127
  MIC: 4 µg/mL
[7]
  MIC: > 32 µg/mL
